The target in this experiment is T1, KCC2 (Homo sapiens, UniProt Q9H2X9).
T1 construct: expressed in transfected cells; host or cells: HEK-293 (ATCC CRL-1573)
T1 sequence (Q9H2X9 1-1116 isoform Q9H2X9-2): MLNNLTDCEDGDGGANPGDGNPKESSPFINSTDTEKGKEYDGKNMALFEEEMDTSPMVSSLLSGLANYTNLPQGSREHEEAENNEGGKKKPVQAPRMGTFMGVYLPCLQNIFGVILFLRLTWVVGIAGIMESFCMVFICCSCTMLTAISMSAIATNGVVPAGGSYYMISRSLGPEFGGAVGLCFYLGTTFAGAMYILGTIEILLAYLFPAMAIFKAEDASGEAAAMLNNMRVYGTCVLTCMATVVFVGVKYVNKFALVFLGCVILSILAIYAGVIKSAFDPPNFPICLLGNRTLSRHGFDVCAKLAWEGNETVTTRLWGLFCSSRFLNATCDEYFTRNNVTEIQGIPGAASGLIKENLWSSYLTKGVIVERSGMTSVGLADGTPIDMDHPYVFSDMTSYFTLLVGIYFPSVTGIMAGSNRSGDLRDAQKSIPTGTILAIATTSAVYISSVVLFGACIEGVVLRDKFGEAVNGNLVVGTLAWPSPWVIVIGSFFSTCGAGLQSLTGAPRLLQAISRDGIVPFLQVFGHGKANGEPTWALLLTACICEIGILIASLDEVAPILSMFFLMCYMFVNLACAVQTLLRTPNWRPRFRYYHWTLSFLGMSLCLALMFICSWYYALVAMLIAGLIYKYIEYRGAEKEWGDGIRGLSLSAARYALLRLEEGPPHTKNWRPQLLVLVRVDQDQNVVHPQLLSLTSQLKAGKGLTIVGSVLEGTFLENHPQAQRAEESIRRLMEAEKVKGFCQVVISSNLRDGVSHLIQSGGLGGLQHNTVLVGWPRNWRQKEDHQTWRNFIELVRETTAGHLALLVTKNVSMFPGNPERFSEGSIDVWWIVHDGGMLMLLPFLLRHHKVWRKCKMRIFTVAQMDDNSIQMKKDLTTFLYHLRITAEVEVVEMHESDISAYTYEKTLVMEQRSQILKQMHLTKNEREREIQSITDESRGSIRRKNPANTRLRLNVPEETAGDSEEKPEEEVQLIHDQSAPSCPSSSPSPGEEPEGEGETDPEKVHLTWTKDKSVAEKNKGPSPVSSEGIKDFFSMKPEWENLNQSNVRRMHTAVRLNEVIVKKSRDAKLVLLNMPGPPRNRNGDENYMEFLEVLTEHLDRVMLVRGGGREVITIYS
Briefly: Biotinylation, plasma membrane level of KCC2 in HEK-293 cells. The format is cell-based. The conditions noted are these: 15 min, surface/total KCC2. The procedure: Cell Culture and biotinylation. HEK-293 cells were purchased from ATCC (CRL-1573) and transfected with human KCC2 and GFP expression plasmids using Lipofectamine 2000. Cells were utilized for experimentation 48-72 h following transfection. Cells were biotinylated at 4° C. using NHS-Biotin. Following lysis and purification on immobilized avidin beads, cell surface and total fractions were subject to immunoblotting as outlined previously (Conway et al., 2017, supra).
The reliability of the biotinylation procedure was assessed via immunoblotting with antibodies against the cytosolic protein actin. Actin was present in the total lysates but was absent from the surface fractions (FIG. 2C).

On to `C[C@@H]1CN(c2nc3c(c(Nc4ccc(C5CCCCC5)cc4)n2)COC3)CCO1` [Compound A, (R)—N-(4-cyclohexylphenyl)-2-(2-methylmorpholino)-5,7-dihydrofuro[3,4-d]pyrimidin-4-amine], for which the “level of KCC2 on the plasma membrane” value reads like this: (0.3 μM) 94.5±8.4 % of control; (3 μM) 104.7±8.4 % of control.

These data come from patent publication US20260108529A1, “FUSED AMINO PYRIMIDINE COMPOUNDS FOR TREATMENT OF TINNITUS, ACUTE SENSORINEURAL HEARING LOSS, AGE-RELATED HEARING LOSS, AND MENIERE'S DISEASE” (Ovid Therapeutics Inc., priority 2024, published 2026).
